Measurements taken from PubChem BioAssay (NCI).
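Growth conditions: 96-well plates. Treatment: test compound, 48 hours, 5 concentrations. Analysis: linear interpolation between bracketing concentrations; unreached endpoints set to highest concentration. At the GI50, growth is halved. The concentration for full growth arrest is given as TGI.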

Key:
Test in all cases: growth of human tumour cells (NCI), 48 h
HL-60(TB) leukemia = test system: HL-60(TB) leukemia
HOP-62 NSCLC = test system: HOP-62 NSCLC
SNB-78 CNS = test system: SNB-78 CNS
RXF-631 renal = test system: RXF-631 renal
U251 CNS = test system: U251 CNS
M19-MEL melanoma = test system: M19-MEL melanoma
MOLT-4 leukemia = test system: MOLT-4 leukemia
SF-268 CNS = test system: SF-268 CNS
NCI-H522 lung = test system: NCI-H522 lung
DMS 114 small cell lung = test system: DMS 114 small cell lung
HCT-15 colon = test system: HCT-15 colon
MDA-N = test system: MDA-N
786-0 renal = test system: 786-0 renal

Row | Structure (SMILES) | TGI (HL-60(TB) leukemia) [µM] | TGI (HOP-62 NSCLC) [µM] | TGI (SNB-78 CNS) [µM] | TGI (RXF-631 renal) [µM] | TGI (U251 CNS) [µM] | TGI (M19-MEL melanoma) [µM] | TGI (MOLT-4 leukemia) [µM] | TGI (SF-268 CNS) [µM] | TGI (NCI-H522 lung) [µM] | TGI (DMS 114 small cell lung) [µM] | TGI (HCT-15 colon) [µM] | TGI (MDA-N) [µM] | TGI (786-0 renal) [µM] | GI50 (HL-60(TB) leukemia) [µM] | GI50 (HOP-62 NSCLC) [µM] | GI50 (HCT-15 colon) [µM] | GI50 (U251 CNS) [µM] | GI50 (MOLT-4 leukemia) [µM] | GI50 (SF-268 CNS) [µM] | GI50 (NCI-H522 lung) [µM]
1 | Cc1ccc(SSCCCCCS(=O)O)cc1 | 55.8 | 56.4 | 82.1 | > 100 | 25.7 | > 100 | 40.3 | 36.1 | 27.9 | 45.2 | – | – | – | – | – | – | – | – | – | –
2 | CNC(=O)Nc1ccccc1 | > 100 | > 100 | – | – | > 100 | – | > 100 | > 100 | > 100 | – | > 100 | > 100 | > 100 | – | – | – | – | – | – | –
3 | O=C(COc1ccc(Cl)cc1Cl)N/N=C/C=C/c1ccc([N+](=O)[O-])o1 | > 100 | 54.4 | – | – | > 100 | – | 6.14 | > 100 | 2.83 | – | > 100 | > 100 | 65.9 | – | – | – | – | – | – | –
4 | C[N+](C)(CCO)CCN1c2ccccc2Sc2ccccc21 | > 10 | > 10 | – | – | > 10 | – | > 10 | > 10 | > 10 | – | > 10 | > 10 | – | – | – | – | – | – | – | –
5 | COc1ccc2c(c1)CC[C@@H]1[C@@H]2CC[C@]2(C)C(=O)/C(=C/c3ccc(O)c(OC)c3)C[C@@H]12 | > 100 | > 100 | – | – | > 100 | – | 92.1 | – | – | – | 72.6 | > 100 | – | – | – | – | – | – | – | –
6 | C[C@]12CCC(=O)C=C1CC[C@@H]1[C@@H]2[C@@H](O)C[C@@]2(C)[C@H]1CC[C@]2(O)C(=O)COC(=O)C1CCCC1 | > 100 | > 100 | – | – | > 100 | – | – | > 100 | > 100 | – | > 100 | > 100 | > 100 | – | – | – | – | – | – | –
7 | O=S(O)c1cc(Cl)cc(Cl)c1OCc1ccccc1 | > 100 | > 100 | > 100 | > 100 | > 100 | > 100 | > 100 | > 100 | > 100 | > 100 | – | – | – | – | – | – | – | – | – | –
8 | COc1cc2c(cc1OC)-c1cc3ccc(OC)c(OC)c3c[n+]1CC2 | > 100 | > 100 | – | – | > 100 | – | > 100 | > 100 | > 100 | – | > 100 | > 100 | > 100 | – | – | – | – | – | – | –
9 | O=C(NNC(=O)c1nsc2ccccc12)c1ccc(Cl)cc1 | 49.8 | 33.7 | 61.7 | – | 33.7 | 39.1 | 50.2 | 41.3 | – | – | 36.4 | – | – | – | – | – | – | – | – | –
10 | Nc1nc(=O)n(CC(O)CO)s1 (centres undefined) | > 100 | > 100 | – | > 100 | > 100 | > 100 | > 100 | > 100 | – | > 100 | > 100 | – | – | – | – | – | – | – | – | –
11 | Clc1ccc(-c2nnc(-c3c(Cl)c(Cl)c(Cl)c(Cl)c3-c3nc4ccccc4[nH]3)o2)cc1 | > 100 | > 100 | – | – | – | – | > 100 | > 100 | > 100 | – | > 100 | > 100 | > 100 | – | – | – | – | – | – | –
12 | O=C1C[C@H](CCC(=O)OCc2ccccc2)NC(=O)C[C@H](CCC(=O)OCc2ccccc2)NC(=O)C[C@H](CCC(=O)OCc2ccccc2)N1 | – | > 100 | – | – | > 100 | – | > 100 | – | > 100 | – | > 100 | > 100 | > 100 | – | – | – | – | – | – | –
13 | CCOC(=O)c1c(CN2CCCC2)n(-c2ccccc2)c2cc(Br)c(OC)cc12 | 36 | 22.5 | – | – | 39.1 | – | 24.3 | > 100 | 31.6 | – | 34.1 | > 100 | 32 | – | – | – | – | – | – | –
14 | COc1ccc(C2C(C=O)C(N3CCN(C)CC3)=Nc3nc4ccccc4n32)cc1 (centres undefined) | 18.4 | 28.7 | – | – | 39.3 | – | 12.3 | 51.6 | 25.6 | – | 46.5 | – | > 100 | – | – | – | – | – | – | –
15 | Cn1c(=O)c2c(nc(NCCNc3nc4c(c(=O)n(C)c(=O)n4C)n3C)n2C)n(C)c1=O | – | > 100 | – | – | > 100 | – | > 100 | > 100 | > 100 | – | > 100 | > 100 | > 100 | – | – | – | – | – | – | –
16 | COc1ccc2nc3ccccc3c(NCc3ccc(C)cc3)c2c1 | 4.58 | 3.7 | – | – | 3.69 | – | 11.5 | 5.44 | 4.67 | – | 4.76 | – | – | 2.03 | 1.78 | 1.73 | 1.84 | 3.04 | 2.27 | 1.94
17 | NC(CC(=O)O)(Cc1ccccc1)C(=O)O (centres undefined) | > 100 | > 100 | – | – | > 100 | – | > 100 | – | > 100 | – | > 100 | > 100 | > 100 | – | – | – | – | – | – | –
18 | CC(=O)C1=C(O)CCC1=O | > 100 | > 100 | – | – | > 100 | – | > 100 | > 100 | > 100 | – | – | – | – | – | – | – | – | – | – | –
